From patent US6867226B2, “Serotonin 5-HT3 receptor partial activator” (Meiji Seika Kaisha, Ltd., priority 1996, dated 2005)

Experiments:
serotonin 5-HT3 receptor [1] = biological target: T1, serotonin 5-HT3 receptor (Cavia porcellus, UniProt O70212); experiment: Serotonin 5-HT3 receptor antagonism, inhibition of 5-HT-induced contraction of guinea pig ileum longitudinal muscle; type: cell-based; details: inhibition ratio of contraction by 10 μM serotonin 5-HT after treatment with test compound 10 μM; Hartley guinea pig ileum
T1 construct: Longitudinal muscle samples of about 20 mm were prepared from the ileum of Hartley male guinea pigs; from tissue; host or cells: guinea pig (Hartley, male) ileum longitudinal muscle
T1 sequence (O70212 20-490): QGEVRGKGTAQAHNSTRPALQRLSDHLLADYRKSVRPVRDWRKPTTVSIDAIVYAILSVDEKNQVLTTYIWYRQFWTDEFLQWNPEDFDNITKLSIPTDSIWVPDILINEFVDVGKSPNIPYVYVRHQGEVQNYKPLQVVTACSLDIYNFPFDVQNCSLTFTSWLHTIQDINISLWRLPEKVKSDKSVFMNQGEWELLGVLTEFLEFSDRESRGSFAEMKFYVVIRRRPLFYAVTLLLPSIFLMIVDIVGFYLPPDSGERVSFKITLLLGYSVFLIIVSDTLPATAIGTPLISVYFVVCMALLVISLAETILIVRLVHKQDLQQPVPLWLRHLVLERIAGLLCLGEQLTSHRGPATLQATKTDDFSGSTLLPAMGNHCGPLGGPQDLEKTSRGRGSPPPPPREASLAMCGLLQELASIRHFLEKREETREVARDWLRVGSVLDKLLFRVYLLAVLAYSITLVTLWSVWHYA
Protocol: (§1) Of the novel and known benzoxazole compounds according to the present invention, typical compounds and the compounds disclosed in JP-A-6-345744, namely 5-methoxy-2-(4-methyl-1-piperazinyl)benzoxazole (A) and 2-(4-methyl-1-piperazinyl)naphtho[2,3-d]oxazole (B), were measured for their serotonin 5-HT3 receptor antagonism and serotonin 5-HT3 receptor activating action by the following method, with the results shown in Table 1. Test compounds of the present invention are shown by the Inventive Example numbers.
(§2) Longitudinal muscle samples of about 20 mm were prepared from the ileum of Hartley male guinea pigs (500 to 800 g). Each of the thus prepared samples was hung down in a Magnus tube with a resting tension of about 0.5 g to measure the isometric contraction reaction. Serotonin 5-HT was applied with a concentration of from 0.1 to 30 μM to the sample which has been subjected twice in advance to 1 hour of treatment with 0.3 μM serotonin 5-HT to effect desensitization of serotonin 5-HT4 receptor.
The i.a. value was expressed as the ratio of the maximum reaction of each compound when the maximum contraction reaction obtained by 10 μM of serotonin 5-HT was defined as 1. The pD2 value was. expressed as the negative logarithmic value of concentration (molar concentration) by which 50% of the maximum contraction reaction of each test compound can be obtained. […]

serotonin 5-HT3 receptor [2] = biological target: T1, serotonin 5-HT3 receptor; experiment: 5-HT3 receptor activating action test, isometric contraction of guinea pig ileum longitudinal muscle; type: cell-based; details: for serotonin 5-HT3 receptor activating action (in words): guinea pig ileum contraction, summary of Table 1; for EC50: negative logarithm of molar concentration giving 50% of the compound's maximum contraction, read-out: Activation Action pD2 (converted); for EC50 / Activation Action i.a.: guinea pig ileum; for Activation Action i.a.: ratio of maximum reaction of compound to maximum contraction by 10 μM serotonin 5-HT defined as 1, 5-HT4 receptor desensitized
Protocol: 5-HT3 Receptor Activating Action Test
as §1, §2
The i.a. value was expressed as the ratio of the maximum reaction of each compound when the maximum contraction reaction obtained by 10 μM of serotonin 5-HT was defined as 1. The pD2 value was. expressed as the negative logarithmic value of concentration (molar concentration) by which 50% of the maximum contraction reaction of each test compound can be obtained. Also, antagonism of each test compound against the serotonin 5-HT3 receptor was calculated as the inhibition ratio of the contraction obtained by applying 10 μM of serotonin 5-HT (manufactured by Sigma) to a sample which has been treated with […] of each test sample to the contraction obtained by applying 10 μM of serotonin 5-HT to the sample before treatment.

mice = experiment: Toxicity test, oral administration to mice; type: in vivo; details: dose of 300 mg/kg, dissolved in water, five-week-old male mice (5 animals)

| Compound | inhibition at 10 µM (serotonin 5-HT3 receptor [1]) | serotonin 5-HT3 receptor activating action (in words) (serotonin 5-HT3 receptor [2]) | EC50 (serotonin 5-HT3 receptor [2]) | Activation Action i.a. (serotonin 5-HT3 receptor [2]) | mortality (mice) |
| --- | --- | --- | --- | --- | --- |
| COc1ccc2oc(N3CCN(C)CC3)nc2c1 [A, 5-methoxy-2-(4-methyl-1-piperazinyl)benzoxazole, reference compound] | 34% | does not have serotonin 5-HT3 receptor activating action | – | – | – |
| CN1CCN(c2nc3cc4ccccc4cc3o2)CC1 [B, 2-(4-methyl-1-piperazinyl)naphtho[2,3-d]oxazole, reference compound] | 85% | weak in comparison with the compounds of the present invention | 3980 nM | 0.45 | – |
| CN1CCN(c2nc3cc(Cl)ccc3o2)CC1 [Example 1, 5-Chloro-2-(4-methyl-1-piperazinyl)benzoxazole] | 92% | – | 398 nM | 0.55 | – |
| C=CC[N+]1(C)CCN(c2nc3cc(Cl)ccc3o2)CC1 [Example 2] | 90% | – | 224 nM | 0.57 | – |
| CN1CCN(c2nc3cc(Cl)c(N)cc3o2)CC1 [Example 5, 6-Amino-5-chloro-2-(4-methyl-1-piperazinyl)benzoxazole] | 95% | – | 676 nM | 0.59 | – |
| C=CC[N+]1(C)CCN(c2nc3cc(Cl)c(N)cc3o2)CC1.[Br-] [Example 7, 1-Allyl-1-methyl-4-(6-amino-5-chlorobenzoxazol-2-yl)piperazinium bromide] | 67% | – | 316 nM | 0.94 | – |
| Nc1cc2oc(N3CCNCC3)nc2cc1Cl [Example 10, 6-Amino-5-chloro-2-(1-piperazinyl)benzoxazole] | 88% | – | 676 nM | 0.69 | – |
| Cc1cc(C)c2oc(N3CCNCC3)nc2c1 [Example 13, 5,7-Dimethyl-2-(1-piperazinyl)benzoxazole] | 100% | – | 100 nM | 0.18 | No mortal case |
| c1ccc2oc(N3CCNCC3)nc2c1 [Example 14, 2-(1-Piperazinyl)benzoxazole] | 75% | – | – | – | – |
| Cc1ccc2oc(C3CCNCC3)nc2c1 [Example 16, 2-(4-Piperidyl)-5-methylbenzoxazole] | 82% | – | 617 nM | 0.24 | – |
| CN1CCN(c2nc3c(ccc4ccccc43)o2)CC1 [Example 21, 2-(4-Methyl-1-piperazinyl)naphtho[1,2-d]oxazole] | 85% | – | 501 nM | 0.26 | – |
| C=CC[N+]1(C)CCN(c2nc3cc(C)ccc3o2)CC1.[Br-] [Example 25, 1-Allyl-1-methyl-4-(5-methylbenzoxazol-2-yl)piperazinium bromide] | 86% | – | 708 nM | 0.79 | – |
| C=CC[N+]1(C)CCN(c2nc3cccc(C)c3o2)CC1.[Br-] [Example 28, 1-Allyl-1-methyl-4-(7-methylbenzoxazol-2-yl)piperazinium bromide] | – | – | – | – | No mortal case |
| Cc1cc(Cl)cc2nc(N3CCN(C)CC3)oc12 [Example 31, 5-Chloro-7-methyl-2-(4-methyl-1-piperazinyl)benzoxazole] | 85% | – | 200 nM | 0.24 | – |
| Cc1cc(C)c2oc(N3CCCN(C)CC3)nc2c1 [Example 36, 5,7-Dimethyl-2-(4-methyl-1-homopiperazinyl)benzoxazole] | 96% | – | 63.1 nM | 0.28 | – |
| Cc1cc(Cl)cc2nc(N3CCCN(C)CC3)oc12 [Example 37, 5-Chloro-7-methyl-2-(4-methyl-1-homopiperazinyl)benzoxazole] | 98% | – | 20 nM | 0.15 | – |
| CN1CCCN(c2nc3c(ccc4ccccc43)o2)CC1 [Example 40, 2-(4-Methyl-1-homopiperazinyl)naphtho[1,2-d]oxazole] | 89% | – | 79.4 nM | 0.21 | – |
